Legend:
[1] = T1-weighted MRI of supernatants with released Mn2+ ions (R1, r1); type: physicochemical; details: MnCl2 aqueous solution
Description: The contrast signal intensity of the photographed image was digitized (R1, unit=[…]), and shown in the graph of FIG. 9b. It is inferred that the released Mn^2+ ions can increase the contrast effect in T1-weighted image, on the basis that FIG. 9b is almost consistent with the graph of the release rate of Mn^2+ ions for each particle shown in FIG. 8e.
Next, the relationship between the concentration of Mn^2+ ions and the contrast intensity R1 of the image is shown in the graph of FIG. 9c. The slope of this graph is expressed as r1, and is a unique value for each material.

[2] = T1 relaxation / T1-weighted image of HMS suspensions (3.0-T MR scanner); type: physicochemical; details: comparison value for free Mn2+
Method: The release profile of manganese ions from HMS was quantified at room temperature using 8 mg of HMS suspensions in 16 ml of citrate buffer at pH 5 and pH 6.2 and distilled water. 4 ml of each HMS suspensions was collected from samples at 15 minutes, 1 hour, 7 hours and 20 hours, and the nanoparticles (NPs) of the sample were removed by centrifugation at 15,000 rpm for 10 minutes, and each supernatant was filtered by using syringe filter with […] of pore size. The amount of each released manganese ion and the T1 relaxation time of the proton in each supernatant were quantified using ICP-AES and a 3.0-T clinical MR scanner (Philips, Achieva ver. 1.2, Philips Medical Systems, Best, The Netherlands).
The Mn release property and T1 contrast enhancing property of HMS prepared in Example 1-2 were tested according to Example 1-3.

- r1 value for pure Mn^2+ ions [1]: about 7.4
- r1 value of free manganese ions [2]: 7.8 s⁻¹ mM⁻¹
Structure (SMILES): [Cl][Mn][Cl] [MnCl2]

Source: patent US20210106698A1, “LIVER-SPECIFIC MRI CONTRAST AGENT INCLUDING MANGANESE SILICATE NANOPARTICLES” (POSTECH ACADEMY-INDUSTRY FOUNDATION, priority 2017, published 2021)
